Assay results published in US20230135729A1, “COMPOUND WITH ANTI-SPORE ACTIVITY AND PHARMACEUTICAL COMPOSITION THEREOF” (priority 2020, published 2023).
≈ marks a conversion by molar mass, not a printed value.

Experiments:
Assay type in all cases: cell-based
[1] = test system: spores of ATCC BBA1870 strain; experiment: Inhibition of germination of C. difficile spores (MIC), strain ATCC BBA1870; settings: Clostridioides difficile, ATCCBBA1870STRAIN, 1 h; strain 1870; sodium taurocholate as germinant, BHIS medium, 37° C., OD580 for 60 min; read-out: MIC (minimum concentration that completely inhibits spore germination)
How it was run: (§1)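 Spores heat-activated for 30 min at 65° C and washed, then preincubated with compound (10 mM DMSO stock) in BHIS at 37° C. Germination was triggered with sodium taurocholate, and OD580 was read each minute for 60 min. Inhibition = 100% − germination rate, from final vs initial OD relative to germinant-only controls.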

[2] = test system: spores of ATCC 43255 strain; experiment: Inhibition of germination of C. difficile spores (MIC), strain ATCC 43255; settings: Clostridioides difficile, ATCC43255, 1 h; strain 43255; sodium taurocholate as germinant, BHIS medium, 37° C., OD580 for 60 min; read-out: MIC (minimum concentration that completely inhibits spore germination)
How it was run: as §1

[3] = test system: spores of ATCC 630 strain; experiment: Inhibition of germination of C. difficile spores (MIC), strain ATCC 630; settings: Clostridioides difficile, ATCC630, 1 h; strain 630; sodium taurocholate as germinant, BHIS medium, 37° C., OD580 for 60 min; read-out: MIC (minimum concentration that completely inhibits spore germination)
How it was run: as §1

[4] = test system: various C. difficile spores; experiment: Inhibition of germination of C. difficile spores, summary over the strains; settings: Clostridioides difficile; Table 1, all strains
Experimental: According to a method disclosed in “The Journal of Infectious Diseases. 2013; 207: 1498-504”, spores of ATCC BBA1870, ATCC 43255 and ATCC 630 strains were obtained by culture and purification, and stored at 4° C.
Spore preparation: the C. difficile spores stored at 4° C. were heat-activated for 30 min at 65° C., centrifuged at 9,400 g for 2 min, and washed three times to remove any self-germinating spores.
Control drug: three cholic acid derivatives, a compound CamSA, a compound 20β (prepared by the method of “Journal of Medicinal Chemistry. 2017, 60 (8): 3451-3471”), and a compound 12a (prepared by the method of “Journal of Medicinal Chemistry. 2018, 61, 6759-6778”), were used as control drugs.
Compound preparation: the compound of the present disclosure, and the positive control drugs CamSA, 20β, and 12a were dissolved in DMSO, to prepare a stock solution with a concentration of 10 mM (prepared for immediate use).
The detection was conducted in a 96-well cell culture plate at a constant temperature of 37° C.; a final volume of each well of the 96-well plate was […] and a buffer was the BHIS medium; 150 μl of spores and drugs were added to the well in advance, and 50 μl of 4 mg/ml sodium taurocholate was added; OD580 was detected every 1 min immediately using a microplate reader, for continuously 60 min. A germination agent control group and a non-germination group were set up; after the detection, a final OD value of each well was compared with an initial value, and compared with the germination agent group to calculate a germination rate and an inhibition rate. A formula for the germination rate was:
Inhibition rate=100%−germination rate.

Row | SMILES | MIC [1] [µM] | MIC [2] [µM] | MIC [3] [µM] | MIC [4] [µM]
1 | CC(NC(=O)C[C@@H](C)[C@H]1CC[C@H]2[C@@H]3C(=O)C[C@@H]4CC(=O)CC[C@]4(C)[C@H]3CC[C@]12C)c1ccc(Cl)s1 (stereo partly shown) [Compound I-32] | 0.5 (≈ 0.259 µg/mL) | 0.5 (≈ 0.259 µg/mL) | 0.5 (≈ 0.259 µg/mL) | ≤ 1
2 | CCCCCCCC(=O)O[C@@H]1C[C@@H]2CC(=O)CC[C@]2(C)[C@H]2CC[C@]3(C)[C@@H]([C@H](C)CC(=O)N[C@H](CC)c4ccc(Br)s4)CC[C@H]3[C@H]12 [Compound I-184] | 128 (≈ 90.2 µg/mL) | 128 (≈ 90.2 µg/mL) | 128 (≈ 90.2 µg/mL) | 
3 | CCCCCCCC(=O)O[C@@H]1C[C@@H]2CC(=O)CC[C@]2(C)[C@H]2CC[C@]3(C)[C@@H]([C@H](C)CC(=O)N[C@@H](c4ccc(Cl)s4)C(C)C)CC[C@H]3[C@H]12 [Compound I-185] | 128 (≈ 86.3 µg/mL) | 128 (≈ 86.3 µg/mL) | 128 (≈ 86.3 µg/mL) | 
4 | CCCCCCCC(=O)O[C@@H]1C[C@@H]2CC(=O)CC[C@]2(C)[C@H]2CC[C@]3(C)[C@@H]([C@H](C)CC(=O)N[C@@H](c4ccc(Br)s4)C(C)C)CC[C@H]3[C@H]12 [Compound I-186] | 256 (≈ 184 µg/mL) | 256 (≈ 184 µg/mL) | 256 (≈ 184 µg/mL) | 
5 | CC[C@@H](NC(=O)C[C@@H](C)[C@H]1CC[C@H]2[C@@H]3[C@H](OC(=O)CCCCCCC(=O)O)C[C@@H]4CC(=O)CC[C@]4(C)[C@H]3CC[C@]12C)c1ccc(Cl)s1 [Compound I-187] | 0.125 (≈ 0.0863 µg/mL) | 0.125 (≈ 0.0863 µg/mL) | 0.125 (≈ 0.0863 µg/mL) | 
6 | CC[C@@H](NC(=O)C[C@@H](C)[C@H]1CC[C@H]2[C@@H]3[C@H](OC(=O)CCCCCCC(=O)O)C[C@@H]4CC(=O)CC[C@]4(C)[C@H]3CC[C@]12C)c1ccc(Br)s1 [Compound I-188] | 0.25 (≈ 0.184 µg/mL) | 0.25 (≈ 0.184 µg/mL) | 0.25 (≈ 0.184 µg/mL) | 
7 | CC(C)[C@@H](NC(=O)C[C@@H](C)[C@H]1CC[C@H]2[C@@H]3[C@H](OC(=O)CCCCCCC(=O)O)C[C@@H]4CC(=O)CC[C@]4(C)[C@H]3CC[C@]12C)c1ccc(Cl)s1 [Compound I-189] | 0.25 (≈ 0.176 µg/mL) | 0.25 (≈ 0.176 µg/mL) | 0.125 (≈ 0.0881 µg/mL) | 
8 | CC(C)[C@@H](NC(=O)C[C@@H](C)[C@H]1CC[C@H]2[C@@H]3[C@H](OC(=O)CCCCCCC(=O)O)C[C@@H]4CC(=O)CC[C@]4(C)[C@H]3CC[C@]12C)c1ccc(Br)s1 [Compound I-190] | 0.25 (≈ 0.187 µg/mL) | 0.25 (≈ 0.187 µg/mL) | 0.25 (≈ 0.187 µg/mL) | 
9 | CC[C@@H](NC(=O)C[C@@H](C)[C@H]1CC[C@H]2[C@@H]3[C@H](OP(=O)(O)O)C[C@@H]4CC(=O)CC[C@]4(C)[C@H]3CC[C@]12C)c1ccc(Cl)s1 [Compound I-191] | 64 (≈ 39.3 µg/mL) | 64 (≈ 39.3 µg/mL) | 64 (≈ 39.3 µg/mL) | 
10 | CC[C@@H](NC(=O)C[C@@H](C)[C@H]1CC[C@H]2[C@@H]3[C@H](OP(=O)(O)O)C[C@@H]4CC(=O)CC[C@]4(C)[C@H]3CC[C@]12C)c1ccc(Br)s1 [Compound I-192] | 64 (≈ 42.2 µg/mL) | 64 (≈ 42.2 µg/mL) | 64 (≈ 42.2 µg/mL) | 
11 | CC(C)[C@@H](NC(=O)C[C@@H](C)[C@H]1CC[C@H]2[C@@H]3[C@H](OP(=O)(O)O)C[C@@H]4CC(=O)CC[C@]4(C)[C@H]3CC[C@]12C)c1ccc(Cl)s1 [Compound I-193] | 64 (≈ 40.2 µg/mL) | 64 (≈ 40.2 µg/mL) | 64 (≈ 40.2 µg/mL) | 
12 | CC(C)[C@@H](NC(=O)C[C@@H](C)[C@H]1CC[C@H]2[C@@H]3[C@H](OP(=O)(O)O)C[C@@H]4CC(=O)CC[C@]4(C)[C@H]3CC[C@]12C)c1ccc(Br)s1 [Compound I-194] | 64 (≈ 43.1 µg/mL) | 64 (≈ 43.1 µg/mL) | 64 (≈ 43.1 µg/mL) | 
13 | CC[C@@H](NC(=O)C[C@@H](C)[C@H]1CC[C@H]2[C@@H]3C(=O)C[C@@H]4CC(=O)CC[C@]4(C)[C@H]3CC[C@]12C)c1ccc(C=O)s1 [Compound I-199] | 16 (≈ 8.41 µg/mL) | 16 (≈ 8.41 µg/mL) | 16 (≈ 8.41 µg/mL) | 
14 | CC(C)[C@@H](NC(=O)C[C@@H](C)[C@H]1CC[C@H]2[C@@H]3C(=O)C[C@@H]4CC(=O)CC[C@]4(C)[C@H]3CC[C@]12C)c1ccc(C=O)s1 [Compound I-200] | 32 (≈ 17.3 µg/mL) | 32 (≈ 17.3 µg/mL) | 16 (≈ 8.64 µg/mL) | 
